Blank lines part the entries; values can stand above or below the molecule they belong to.
Legend:
Assay in all cases: fluorescence titration (ligand quenching)
Settings in all cases: 125 mM K+, 5 mM Mg2+; 40 mM HEPES pH 7.4, 25 °C, 50 nM ligand, RNA titrated, Hill fit
[1] = system: R10K6 (RNA, aptamer) GGGAGACGCAACUGAAUGAAAAUGUCAUUCAAGACUAGGUUGUGACUGCUUAGGCAGUUGUGGACGGCUAAGCCCACCAGAGGUCCGUAACUAGUCGCGUCAC
[2] = system: R10K6_V11 (RNA, aptamer) GGGAGACGCAACAGACUAGGUUGUGACUGCUUAGGCAGUUGUGGACGGCUAAGCCCACCAGAGGUCCGUAACUAGUCGCGUCAC
[3] = system: V10 (R10K6 with changed J5a/5) (RNA, aptamer) GGGAGACGCAACUGAAUGAAAAUGUCAUUCAAGACUAGGUUGUGACUGCUUAGGCAGUUGUGGACGGCUAAGCCCAAACAAAGUCCGUAACUAGUCGCGUCAC
[4] = system: V8 (R10K6 without stem P5a) (RNA, aptamer) GGGAGACGCAACUGAAUGAAAAUGUCAUUCAAGACUAGGUUGUGACUGCUUAGGCAGUUGUGGACACCAGAGGUCCGUAACUAGUCGCGUCAC
[5] = system: V4 (R10K6 without P5 and P5a) (RNA, aptamer) GGGAGACGCAACUGAAUGAAAAUGUCAUUCAAGACUAGGUUGUGACUGCUUAGGCAGUUGUAACUAGUCGCGUCAC
[6] = system: V13 (R10K6 ∆P1∆P2) (RNA, aptamer) GACUAGGUUGUGACUGCUUAGGCAGUUGUGGACGGCUAAGCCCACCAGAGGUCCGUAACUAGUC
[7] = system: V17 (R10K6 with shortened P4) (RNA, aptamer) GGGAGACGCAACUGAAUGAAAAUGUCAUUCAAGACUAGGUUGUGACAAAGGUUGUGGACGGCUAAGCCCACCAGAGGUCCGUAACUAGUCGCGUCAC

binding [1]: yes
Structure (SMILES): CCN1CCN(c2cc3c(cc2F)c(=O)c(C(=O)O)cn3C2CC2)CC1

binding [1]: yes
Structure (SMILES): CCn1cc(C(=O)O)c(=O)c2cc(F)c(N3CCNCC3)cc21

KD [2]: 36 nM
KD [3]: 101 nM
KD [4]: 76 nM
KD [1]: 31 nM
binding [5]: no
KD [6]: 473 nM
binding [7]: no
Structure (SMILES): O=C(O)c1cn(C2CC2)c2cc(N3CCNCC3)c(F)cc2c1=O

The next lines start with the molecule.

Structure (SMILES): O=c1ccn(C2CC2)c2cc(N3CCNCC3)c(F)cc12
binding [1]: weak

Structure (SMILES): CN1C[C@@H]2C[C@H]1CN2c1cc2c(cc1F)c(=O)c(C(=O)O)cn2C1CC1
binding [1]: yes

Source: paper PMC6468496 (2019)
